Experiments:
[1] = type: physicochemical
From the text: To further improve the washing procedure that leads to a high carnosic acid content in the final extract and, concomitantly, a strong antioxidant activity, here we studied the effect of the addition of sodium chloride on the CA hydrosolubility.

[2] = Solubilization of disperse red 13 by urea:betaine aqueous solutions (absorbance at 525 nm); type: physicochemical; conditions: distilled water, room temperature
Protocol: The desired amounts of betaine and/or urea powders were dissolved in distilled water or phosphate buffer solution (PBS, 67 mM) at pH 7.0 to form a 100 mL solution.
The concentration of urea in the urea:betaine mixtures in water or PBS ranged from 0.025 to 8.3 M.
The solutions of urea and/or betaine in PBS were adjusted to provide a pH of 7.0 using concentrated HCl. The volume of added HCl was taken into account when calculating the final molar concentration of betaine and/or urea.
10 mL of the osmolyte solution was added to a vial containing 5 mg red disperse 13 in excess ([…], Sigma), then magnetically stirred (500 rpm) for 16 hours and filtrated (0.45 μm). The concentration of red disperse 13 in the filtrate is measured at 525 nm (Shimadzu UV-1800, Japan). […]
These liquid mixtures were mixed with an excess of disperse red 13 used as a hydrophobic probe to screen the solubilization properties of the solvents. It can be observed from FIG. 1 that the disperse red 13 absorbance increases exponentially 525 nm approx.) with increasing the deep eutectic concentration in water. […]

[3] = Saturation level of urea, betaine and urea:betaine mixtures in water; type: physicochemical
From the text: The concentrations of pure urea solution in water or PBS ranged from 0.025 to 10.1 M, the latter value corresponding to the saturation level of urea. Finally, the concentrations of pure betaine in water or PBS ranged from 0.025 to 5.4 M, this latter corresponding to the saturation level of betaine. In this Example, anhydrous urea:betaine (U:B) mixtures at different molar ratios were first prepared, then solubilized in distilled water at different concentrations ranging from 1.5 g/L to the saturation level which was 607, 813, 985, 957, 795, 741, and 633 g/L for the U:B ratios 1:0, 3:1, 2:1, 1:1, 1:2, 1:3, and 0:1, respectively.

water solubility [1] | hydrotropic behavior for disperse red 13 [2] | saturation level ([3]; distilled water) [g/L] | saturation level ([3]; water or PBS) [M] | SMILES
strongly reduced | – | – | – | CC(C)c1cc2c(c(O)c1O)[C@@]1(C(=O)O)CCCC(C)(C)[C@@H]1CC2 [CA, carnosic acid]
– | too modestly to be qualified as such | 633 | 5.4 | C[N+](C)(C)CC(=O)O [betaine]
– | displays a hydrotropic behavior | 607 | 10.1 | NC(N)=O [urea, Urea]

From US20220305401A1, “EUTECTIC EXTRACTION OF SOLIDS” (Givaudan SA, priority 2019, published 2022)
